Where two headings read alike, the source gives them in different places. Marks after values point to notes of the source that are not given here.
How the values were obtained:
Cu/Zn SOD [1] = molecular target: T1, Cu/Zn SOD (Homo sapiens, UniProt P00441); conditions: 100 μM; Huang et al., Nature 2000; cited from earlier work
Cu/Zn SOD [2] = molecular target: T1, Cu/Zn SOD; assay: Reaction of Cu/Zn SOD with superoxide in the presence of an inhibitor; assay type: biochemical; conditions: 100 μM, 20 mM phosphate buffered saline pH 7.2 (neutral conditions)
Experimental: SOD was added to give an NMR relaxation rate of 28 s^−1. […] See Huang et al., Nature, 2000, 407, 390-395. […] It was also determined that under these conditions, reaction of the enzyme with superoxide was not inhibited.

[3] = Metal/fluoride association from F^− 19F NMR transverse relaxation enhancement (CPMG); assay type: physicochemical; conditions: for kapp,X− (Flouride Association Reaction) / ΔH^‡ (Flouride Association Reaction): iron(III) complexes; for kapp,X− (Flouride Association Reaction) / kapp,X− (Anion Binding Data): 25° C., 90% H2O/10% D2O; for ΔH^‡ (Flouride Association Reaction): activation enthalpy; for ΔH^‡ (Anion Binding Data): manganese(II) complexes; for ΔH^‡ (Anion Binding Data) / kapp,X− (Anion Binding Data): metal/F^− association
Source text: CPMG is the standard technique for measuring transverse NMR relaxation times (T2). See, for example, Braun et al., “150 and More Basic NMR Experiments,” Wiley-VCH Weinheim, 1998, page 159.
Rate constants for metal/probe association reactions can be related directly to the effects of the metal complex on the NMR relaxation rates of probe nuclei.
R2,obs−R2,dia=kapp,F−[M] (6)
where R2,dia is the relaxation rate in diamagnetic solution and kapp,F− is the apparent second order rate constant for metal/F^− association. The effects of eleven paramagnetic metal complexes, Fe^IIIEDTA(H2O)^−, Fe^IIIEDTA(OH)^2−, Fe^IIIPDTA^−, Fe^IIIDTPA^2−, Fe^III2O(TTHA)^2−, Fe^III(CN)6^3−, Mn^IIEDTA(H2O)^2−, Mn^IIPDTA^2−, Mn^IIβ-EDDADP^2−, Mn^IIPO4^−, and Cu/Zn SOD on F^− ion ^19F NMR transverse relaxation rates (R2=1/T2) were studied in aqueous solutions as a function of temperature.
Without being bound to any one theory, the curvature of the plot can arise from a similarity in the magnitudes of outer-sphere and inner-sphere contributions to relaxation (R2,OS and R2,IS). See Dwek, R. A., Nuclear Magnetic Resonance in Biochemistry, Clarendon, Oxford, 1973. […] See Dwek, R. A., Nuclear Magnetic Resonance in Biochemistry, Clarendon, Oxford, 1973. To estimate the contribution of R2,OS, relaxation enhancement of the ^19F resonance of the trifluoroacetate anion (tfa) by Fe^IIIDTPA^2− was measured. R2,IS for the tfa resonance should be negligible due to the low basicity of the anion and the absence of a through bond pathway for magnetic interaction between the paramagnetic center and the ^19F nuclei. For the tfa resonance, R2,obs decreased with increasing temperature consistent with an outer-sphere interaction.
where α, β, and γ are constants. The γ term for F^− relaxation in Equation 7 was set equal to the slope of the least squares line for the tfa data, and ΔH^‡, α, and β were refined to give the curved trend line following the F^− data in FIG. 6. Dashed lines (a) and (b) in FIG. 6 represent the predicted outer-sphere and inner-sphere contributions to the relaxation rate, respectively. The 25° C. association rate constant and activation enthalpy in Table 1 (and used in FIG. 2) are from this refinement.

[4] = cited from earlier work; for kapp,O2− (Superoxide Reaction): iron(III) complexes, aqueous solution, literature values (footnotes b, c, d, f); for kapp,O2,A (Superoxide Reaction Data): full value printed in cell
[5] = trend line of FIG. 8; pH 4.0 to 9.2
Experimental: While Fe^IIIEDTA(OH)^2− is usually formed by deprotonation of coordinated water, its formation can also be thought of (in thermodynamic terms) as a ligand exchange. To investigate the thermodynamics of the formation of Fe^IIIEDTA(OH)^2−, the reaction of F^− with Fe^IIIEDTA(H2O)^− was studied as a function of pH. For Fe^IIIEDTA(H2O)^−, relaxation enhancements were measured for thirteen buffer conditions, having pH values ranging from 4.0 to 9.2. […] In this pH range, F^− 19F relaxation enhancement is governed by two protic equilibria, hydrolysis of Fe^IIIEDTA(H2O)^− and protonation of F^−, as described by Equations 9 and 10:
Fitting the data at pH>6 gives the thermodynamic equilibrium data for hydroxide binding.

[6] = MeOPH^− association; from Summers et al. 2001; cited from earlier work
[7] = Reaction of metal complexes with superoxide (pulse radiolysis and literature rate data); assay type: physicochemical; conditions: manganese(II) complexes, pulse radiolysis; for kapp,O2,B × 10^−2 (Superoxide Reaction Data): printed value is k × 10^−2; for kapp,O2,A × 10^−7 (Superoxide Reaction Data): printed value is k × 10^−7
Experimental: In addition, the rates at which O2.^− reacts with Fe^IIIPDTA^−, Mn^IIEDTA(H2O)^2−, Mn^IIPDTA^2−, and Mn^IIβ-EDDADP^2− were determined by pulse radiolysis. […] The data for the SOD enzyme was previously reported. See Viglino et al., J. Magn. Res., 1979, 34, 265. These reactivity patterns are consistent with literature precedents for similar complexes.
Rapid reactions of Fe^3+ with superoxide (O2.^−) appear to occur via inner-sphere mechanisms where metal/O2.^− association is rate limiting. Under this scenario, rates of metal/O2.^− reactions are expected to correlate with rates at which the metal complexes coordinate F^−.
In addition to metal/F^− association data, FIG. 2 includes published rate data for reactions of a water soluble manganese(III) porphyrin (Mn^IIITM-2-PyP^5+). One of the gray squares in FIG. 2 compares the rate of metal/MeOPH association to the catalytic rate constant for O2.^− dissmutation (kcat) for Mn^IIITM-2-PyP^5+. See Summers et al., Inorg. Chem., 2001, 40, 6547. Values of kcat for manganese(III) porphyrins are thought to be limited by rates of Mn^3+ reduction. See Batinic-Haberle et al., Inorg. Chem., 1999, 38, 4011-4022.

SOD = SOD (Bos taurus, UniProt P00442); conditions: from Viglino et al. 1979; cited from earlier work
Chain of SOD (P00442 2-152 limits assumed): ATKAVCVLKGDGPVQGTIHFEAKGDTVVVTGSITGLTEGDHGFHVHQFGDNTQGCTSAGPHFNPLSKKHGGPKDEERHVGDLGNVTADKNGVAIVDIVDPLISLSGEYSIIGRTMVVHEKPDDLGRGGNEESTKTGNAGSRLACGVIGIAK

T1 sequence (P00441 whole entry): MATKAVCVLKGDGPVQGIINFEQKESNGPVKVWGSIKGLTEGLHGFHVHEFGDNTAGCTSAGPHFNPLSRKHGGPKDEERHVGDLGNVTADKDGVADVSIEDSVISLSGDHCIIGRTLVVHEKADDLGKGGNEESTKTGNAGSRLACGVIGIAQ

COc1cc2c(cc1O)CC[C@@H]1[C@@H]2CC[C@]2(C)[C@@H](O)CC[C@@H]12 [Complex 2ME2, 2-methoxyestradiol]
inhibition of Cu/Zn SOD previously reported (Cu/Zn SOD [1]): complete inhibition
reaction of the enzyme with superoxide (Cu/Zn SOD [2]): not inhibited

O=C([O-])CN(CCN(CCN(CC(=O)[O-])CC(=O)[O-])CC(=O)[O-])CCN(CC(=O)[O-])CC(=O)[O-].[Fe+3].[Fe+3].[O-2] [Fe^III2O(TTHA)^2−]
kapp,X− (Flouride Association Reaction) ([3]; pH 6): 12 M⁻¹ s⁻¹
ΔH^‡ (Flouride Association Reaction) [3]: 39 kJ/mol
kapp,O2− (Superoxide Reaction) [4]: 1.2 × 10^4 (d) M^−1s^−1

O=C([O-])CN(CCN(CC(=O)[O-])CC(=O)[O-])CCN(CC(=O)[O-])CC(=O)[O-].[Fe+3] [Fe^IIIDTPA^2−, iron (III) diethylenetriaminepentaacetate]
kapp,X− (Flouride Association Reaction) ([3]; pH 6): 240 M⁻¹ s⁻¹
ΔH^‡ (Flouride Association Reaction) [3]: 22 kJ/mol
kapp,O2− (Superoxide Reaction) [4]: 6 × 10^3 (c) M^−1s^−1

O.O=C([O-])CN(CCN(CC(=O)[O-])CC(=O)[O-])CC(=O)[O-].[Fe+3] [Fe^IIIEDTA(H2O)^−, iron (III) ethylenediamine-N,N,N″,N″-tetraacetic acid hydrate]
kapp,X− (Flouride Association Reaction) ([3]; pH 6): 93000 M⁻¹ s⁻¹
ΔH^‡ (Flouride Association Reaction) [3]: 39 kJ/mol
apparent rate constant for F^− association ([3]; trend line of FIG. 8, pH 4.0 to 9.2): 4e+06 M⁻¹ s⁻¹
apparent rate constant for HF association [5]: 93000 M⁻¹ s⁻¹
kapp,O2− (Superoxide Reaction) [4]: 1.9 × 10^6 (f) M^−1s^−1

O.O.O.O.O.O.[Mn+2] [Mn^II(H2O)6^2+]
kapp,X− (Anion Binding Data) [6]: 5.8 × 10^6 (e) M^−1s^−1
ΔH^‡ (Anion Binding Data) [6]: 47 ^(e) kJ/mol
kapp,O2,A (Superoxide Reaction Data) ([4]; from Pick-Kaplan and Rabini): 1.1 × 10^8 (f) M^−1s^−1

O.O=C([O-])CN(CCN(CC(=O)[O-])CC(=O)[O-])CC(=O)[O-].[Mn+2] [Mn^IIEDTA(H2O)^2−]
ΔH^‡ (Anion Binding Data) [3]: 31 kJ/mol
kapp,X− (Anion Binding Data) ([3]; pH 7): 60000 M⁻¹ s⁻¹
kapp,O2,B × 10^−2 (Superoxide Reaction Data) [7]: 4.0 ± 0.8 s^−1
kapp,O2,A × 10^−7 (Superoxide Reaction Data) [7]: 1.24 ± 0.24 M^−1s^−1

O=P([O-])([O-])[O-].[Mn+2] [Mn^IIPO4 ^−]
ΔH^‡ (Anion Binding Data) [3]: 42 kJ/mol
kapp,X− (Anion Binding Data) ([3]; pH 6): 1.8 × 10^6 (b) M^−1s^−1
kapp,O2,A (Superoxide Reaction Data) ([4]; pH 6, from Cabelli and Bielski): 5.0 × 10^7 (b,c) M^−1s^−1

O=C([O-])CCN(CCN(CCC(=O)[O-])CC(=O)[O-])CC(=O)[O-].[Mn+2] [Mn^IIβ-EDDADP^2−]
ΔH^‡ (Anion Binding Data) [3]: 22 kJ/mol
kapp,X− (Anion Binding Data) ([3]; pH 7): 130000 M⁻¹ s⁻¹
kapp,O2,B × 10^−2 (Superoxide Reaction Data) [7]: 3.5 ± 0.7 s^−1
kapp,O2,A × 10^−7 (Superoxide Reaction Data) [7]: 1.95 ± 0.40 M^−1s^−1

F [fluoride, fluoride anion]
association constant for fluoride binding (SOD): 1.2 M⁻¹

Reference: patent US20090088340A1, “METHODS FOR PREDICTING THE REDUCTION/OXIDATION (REDOX) REACTION ACTIVITY OF METAL COMPLEXES” (WESTERN CAROLINA UNIVERSITY, priority 2007, published 2009)
